Measurements as given in patent US20070082880A1 (priority 2005, published 2007).

Molecular target: T1, human PKCθ full length enzyme (Homo sapiens, UniProt Q04759)
T1 construct: human PKCθ full length enzyme (Panvera Catalog No. P2996); purchased Panvera P2996
Assay: PKCθ IMAP Assay
Format: biochemical
Details: average value when one or more samples were tested; ATP 6 uM, PKCθ 1 nM
Procedure, shortened: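 IMAP fluorescence polarization after 20 min with binding beads measured phosphorylation of 100 nM 5FAM-peptide. Reactions held 1 nM full-length human PKCθ, 6 uM ATP, 5% DMSO and DTT-containing buffer, 25 min at room temperature. Compounds tested as 2:1 serial dilutions; controls lacked ATP or enzyme.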

T1 sequence (Q04759 whole entry): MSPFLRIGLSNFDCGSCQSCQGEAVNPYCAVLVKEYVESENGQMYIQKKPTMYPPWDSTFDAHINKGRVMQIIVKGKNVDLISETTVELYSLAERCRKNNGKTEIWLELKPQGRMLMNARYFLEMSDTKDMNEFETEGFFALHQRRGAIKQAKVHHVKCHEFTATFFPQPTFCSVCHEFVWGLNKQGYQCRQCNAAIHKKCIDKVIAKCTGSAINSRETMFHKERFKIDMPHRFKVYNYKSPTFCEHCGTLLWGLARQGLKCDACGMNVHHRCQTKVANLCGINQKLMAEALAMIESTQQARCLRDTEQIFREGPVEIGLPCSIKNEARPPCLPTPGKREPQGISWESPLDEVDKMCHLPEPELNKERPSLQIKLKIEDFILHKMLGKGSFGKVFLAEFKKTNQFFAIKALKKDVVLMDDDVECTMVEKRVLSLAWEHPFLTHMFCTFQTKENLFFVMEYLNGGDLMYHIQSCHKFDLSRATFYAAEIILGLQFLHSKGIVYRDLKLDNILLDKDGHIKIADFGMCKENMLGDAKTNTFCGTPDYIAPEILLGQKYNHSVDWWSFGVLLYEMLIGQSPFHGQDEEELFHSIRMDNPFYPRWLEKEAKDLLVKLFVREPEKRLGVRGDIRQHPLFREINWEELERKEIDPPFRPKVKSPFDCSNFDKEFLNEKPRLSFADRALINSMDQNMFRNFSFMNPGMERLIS

IC50 [nM]	Compound
17	Cc1c(Nc2c(C#N)cnc3sc(/C=C/C(=O)Nc4cccnc4)cc23)ccc2[nH]ccc12 [Compound 296, (2E)-3-{5-cyano-4-[(4-methyl-1H-indol-5-yl)amino]thieno[2,3-b]pyridin-2-yl}-N-pyridin-3-ylacrylamide]
12	Cc1c(Nc2c(C#N)cnc3sc(/C=C/C(N)=O)cc23)ccc2[nH]ccc12 [Compound 297, (2E)-3-{5-cyano-4-[(4-methyl-1H-indol-5-yl)amino]thieno[2,3-b]pyridin-2-yl}acrylamide]
48	Cc1c(Nc2c(C#N)cnc3sc(/C=C/C(=O)N4CCCCC4)cc23)ccc2[nH]ccc12 [Compound 298, 4-[(4-methyl-1H-indol-5-yl)amino]-2-[(1E)-3-oxo-3-piperidin-1-ylprop-1-en-1-yl]thieno[2,3-b]pyridine-5-carbonitrile]
32	Cc1c(Nc2c(C#N)cnc3sc(/C=C/C(=O)N4CCC[C@H]4CN4CCCC4)cc23)ccc2[nH]ccc12 [Compound 299, 4-[(4-methyl-1H-indol-5-yl)amino]-2-{(1E)-3-oxo-3-[(2S)-2-(pyrrolidin-1-ylmethyl)pyrrolidin-1-yl]prop-1-en-1-yl}thieno[2,3-b]pyridine-5-carbonitrile]
175	Cc1c(Nc2c(C#N)cnc3sc(/C=C/C(=O)N4CC[C@@H](N(C)C)C4)cc23)ccc2[nH]ccc12 [Compound 300, 2-{(1E)-3-[(3R)-3-(dimethylamino)pyrrolidin-1-yl]-3-oxoprop-1-en-1-yl}-4-[(4-methyl-1H-indol-5-yl)amino]thieno[2,3-b]pyridine-5-carbonitrile]
171	Cc1c(Nc2c(C#N)cnc3sc(/C=C/C(=O)N4CC[C@H](N(C)C)C4)cc23)ccc2[nH]ccc12 [Compound 301, 2-{(1E)-3-[(3S)-3-(dimethylamino)pyrrolidin-1-yl]-3-oxoprop-1-en-1-yl}-4-[(4-methyl-1H-indol-5-yl)amino]thieno[2,3-b]pyridine-5-carbonitrile]
4	Cc1c(Nc2c(C#N)cnc3sc(/C=C/C(=O)N4CCCC4)c(C)c23)ccc2[nH]ccc12 [Compound 302, 3-methyl-4-[(4-methyl-1H-indol-5-yl)amino]-2-[(1E)-3-oxo-3-pyrrolidin-1-ylprop-1-en-1-yl]thieno[2,3-b]pyridine-5-carbonitrile]
111	Cc1c(Nc2c(C#N)cnc3sc(/C=C/C(=O)Nc4ccccc4)cc23)ccc2[nH]ccc12 [Compound 303, (2E)-3-{5-cyano-4-[(4-methyl-1H-indol-5-yl)amino]thieno[2,3-b]pyridin-2-yl}-N-phenylacrylamide]
43	Cc1c(Nc2c(C#N)cnc3sc(/C=C/C(=O)Nc4ccncc4)cc23)ccc2[nH]ccc12 [Compound 304, (2E)-3-{5-cyano-4-[(4-methyl-1H-indol-5-yl)amino]thieno[2,3-b]pyridin-2-yl}-N-pyridin-4-ylacrylamide]
2	Cc1c(Nc2c(C#N)cnc3sc(/C=C/C(=O)N(C)C)cc23)ccc2[nH]ccc12 [Compound 305, (2E)-3-{5-cyano-4-[(4-methyl-1H-indol-5-yl)amino]thieno[2,3-b]pyridin-2-yl}-N,N-dimethylacrylamide]
2	CCN(CC)C(=O)/C=C/c1cc2c(Nc3ccc4[nH]ccc4c3C)c(C#N)cnc2s1 [Compound 306, (2E)-3-{5-cyano-4-[(4-methyl-1H-indol-5-yl)amino]thieno[2,3-b]pyridin-2-yl}-N,N-diethylacrylamide]
15	CCNC(=O)/C=C/c1cc2c(Nc3ccc4[nH]ccc4c3C)c(C#N)cnc2s1 [Compound 307, (2E)-3-{5-cyano-4-[(4-methyl-1H-indol-5-yl)amino]thieno[2,3-b]pyridin-2-yl}-N-ethylacrylamide]
48	COCCNC(=O)/C=C/c1cc2c(Nc3ccc4[nH]ccc4c3C)c(C#N)cnc2s1 [Compound 308, (2E)-3-{5-cyano-4-[(4-methyl-1H-indol-5-yl)amino]thieno[2,3-b]pyridin-2-yl}-N-(2-methoxyethyl)acrylamide]
53	Cc1c(Nc2c(C#N)cnc3sc(/C=C/C(=O)N4CCOCC4)cc23)ccc2[nH]ccc12 [Compound 309, 4-[(4-methyl-1H-indol-5-yl)amino]-2-[(1E)-3-morpholin-4-yl-3-oxoprop-1-en-1-yl]thieno[2,3-b]pyridine-5-carbonitrile]
41	Cc1c(Nc2c(C#N)cnc3sc(/C=C/C(=O)N4CCC(O)C4)cc23)ccc2[nH]ccc12 (centres unmarked) [Compound 310, 2-[(1E)-3-(3-hydroxypyrrolidin-1-yl)-3-oxoprop-1-en-1-yl]-4-[(4-methyl-1H-indol-5-yl)amino]thieno[2,3-b]pyridine-5-carbonitrile]
88	Cc1c(Nc2c(C#N)cnc3sc(/C=C/C(=O)N4CCNCC4)cc23)ccc2[nH]ccc12 [Compound 311, 4-[(4-methyl-1H-indol-5-yl)amino]-2-[(1E)-3-oxo-3-piperazin-1-ylprop-1-en-1-yl]thieno[2,3-b]pyridine-5-carbonitrile]
151	Cc1c(Nc2c(C#N)cnc3sc(/C=C/C(=O)N(C)CCN(C)C)cc23)ccc2[nH]ccc12 [Compound 312, (2E)-3-{5-cyano-4-[(4-methyl-1H-indol-5-yl)amino]thieno[2,3-b]pyridin-2-yl}-N-[2-(dimethylamino)ethyl]-N-methylacrylamide]
104	Cc1c(Nc2c(C#N)cnc3sc(/C=C/C(=O)NN(C)C)cc23)ccc2[nH]ccc12 [Compound 313, (2E)-3-{5-cyano-4-[(4-methyl-1H-indol-5-yl)amino]thieno[2,3-b]pyridin-2-yl}-N′,N′-dimethylacrylohydrazide]

IC50 [nM]	Compound
375	Cc1c(Nc2c(C#N)cnc3sc(/C=C/C(=O)NN4CCCC4)cc23)ccc2[nH]ccc12 [Compound 314, (2E)-3-{5-cyano-4-[(4-methyl-1H-indol-5-yl)amino]thieno[2,3-b]pyridin-2-yl}-N-pyrrolidin-1-ylacrylamide]
718	Cc1c(I)sc2ncc(C#N)c(Nc3ccc4[nH]ccc4c3)c12 [Compound 317, 4-(1H-Indol-5-ylamino)-2-iodo-3-methylthieno[2,3-b]pyridine-5-carbonitrile]
80	Cc1c(Nc2c(C#N)cnc3sc(I)c(C)c23)ccc2[nH]ccc12 [Compound 318, 2-Iodo-3-methyl-4-[(4-methyl-1H-indol-5-yl)amino]thieno[2,3-b]pyridine-5-carbonitrile]
1110	Cc1ccc2[nH]ccc2c1Nc1c(C#N)cnc2sc(-c3ccccc3)cc12 [Compound 319, 4-[(5-methyl-1H-indol-4-yl)amino]-2-phenylthieno[2,3-b]pyridine-5-carbonitrilee]
690	CN(C)Cc1cccc(-c2cc3c(Nc4cnc5[nH]ccc5c4)c(C#N)cnc3s2)c1 [Compound 320, 2-{3-[(dimethylamino)methyl]phenyl}-4-(1H-pyrrolo[2,3-b]pyridin-5-ylamino)thieno[2,3-b]pyridine-5-carbonitrile]
345	CC(C)c1c(I)sc2ncc(C#N)c(Nc3ccc4[nH]ccc4c3)c12 [Compound 321, 4-(1H-indol-5-ylamino)-2-iodo-3-isopropylthieno[2,3-b]pyridine-5-carbonitrile]
4670	N#Cc1cnc2sc(-c3ccccc3)cc2c1Nc1cnc2[nH]ccc2c1 [Compound 322, 2-phenyl-4-(1H-pyrrolo[2,3-b]pyridin-5-ylamino)thieno[2,3-b]pyridine-5-carbonitrile]
87	Cc1cc2[nH]ccc2cc1Nc1c(C#N)cnc2sc(-c3ccccc3)cc12 [Compound 323, 4-[(6-methyl-1H-indol-5-yl)amino]-2-phenylthieno[2,3-b]pyridine-5-carbonitrile]
65	Cc1c(Nc2c(C#N)cnc3sc(I)c(C(C)C)c23)ccc2[nH]ccc12 [Compound 324, 2-iodo-3-isopropyl-4-[(4-methyl-1H-indol-5-yl)amino]thieno[2,3-b]pyridine-5-carbonitrile]
15	Cc1c(Nc2c(C#N)cnc3scc(Br)c23)ccc2[nH]ccc12 [Compound 325, 3-bromo-4-[(4-methyl-1H-indol-5-yl)amino]thieno[2,3-b]pyridine-5-carbonitrile]
31000	CN(C)Cc1cccc(-c2cc3c(Nc4cccnc4)c(C#N)cnc3s2)c1 [Compound 326, 2-{3-[(dimethylamino)methyl]phenyl}-4-(pyridin-3-ylamino)thieno[2,3-b]pyridine-5-carbonitrile]
16400	CN(C)Cc1cccc(-c2cc3c(Nc4ccncc4)c(C#N)cnc3s2)c1 [Compound 327, 2-{3-[(dimethylamino)methyl]phenyl}-4-(pyridin-4-ylamino)thieno[2,3-b]pyridine-5-carbonitrile]
1380	N#Cc1cnc2sc(-c3ccc4ccccc4c3)cc2c1Nc1ccc2[nH]ccc2c1 [Compound 328, 4-(1H-indol-5-ylamino)-2-(2-naphthyl)thieno[2,3-b]pyridine-5-carbonitrile]
160	Cc1c(Nc2c(C#N)cnc3sc(-c4ccc(N5CCOCC5)nc4)cc23)ccc2[nH]ccc12 [Compound 329, 4-[(4-methyl-1H-indol-5-yl)amino]-2-(6-morpholin-4-ylpyridin-3-yl)thieno[2,3-b]pyridine-5-carbonitrile]
69	Cc1c(Nc2c(C#N)cnc3sc(-c4cnc(N5CCOCC5)nc4)cc23)ccc2[nH]ccc12 [Compound 330, 4-[(4-methyl-1H-indol-5-yl)amino]-2-(2-morpholin-4-ylpyrimidin-5-yl)thieno[2,3-b]pyridine-5-carbonitrile]
> 25000	Cc1c(Nc2c(C#N)cnc3sc(-c4cnc(N(C)C)nc4)cc23)ccc2[nH]ccc12 [Compound 331, 2-[2-(dimethylamino)pyrimidin-5-yl]-4-[(4-methyl-1H-indol-5-yl)amino]thieno[2,3-b]pyridine-5-carbonitrile]
437	CCOc1ccccc1-c1cc2c(Nc3ccc4[nH]ccc4c3C)c(C#N)cnc2s1 [Compound 332, 2-(2-ethoxyphenyl)-4-[(4-methyl-1H-indol-5-yl)amino]thieno[2,3-b]pyridine-5-carbonitrile]
